Experimental findings from ChEMBL document CHEMBL1201862, “PubChem BioAssay data set” (2004) are described below.

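How tested: cells in 96-well plates exposed to compound for 48 hours at five concentrations. GI50 marks 50% less growth.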 Activity calls are given as the source filed them. Cut-off read from the data, not from the text of the source: active = GI50 up to about 1.1 µM and inactive = higher. Some results are limits rather than exact numbers.

Test systems include OVCAR-3; EKVX; ACHN; KM12; TK-10; RXF 393; MDA-MB-435; UACC-62; U-251; MCF7; SNB-75; SF-295; K562; SF-268; CCRF-CEM; LOX IMVI; NCI-H23; SN12C; A498; COLO 205.
Holding throughout (experiment): growth of human tumour cells (NCI), 48 h

Turning to `COc1ccc2c(c1)/C(=C(\C(Cl)=C(\Cl)N1CCCCC1)[N+](=O)[O-])N2`, the GI50 with OVCAR-3 is 42.5 µM (inactive); in the assay on EKVX, 48.9 µM (inactive); with ACHN it was > 100 µM (inactive); in the assay on KM12 it was > 100 µM (inactive); with TK-10, > 100 µM (inactive); in the assay with RXF 393, 64 µM (inactive). Besides, the GI50 is > 100 µM (inactive) with MDA-MB-435; > 100 µM (inactive) in the assay with UACC-62; > 100 µM (inactive) in the assay on U-251; > 100 µM (inactive) in the assay on MCF7; > 100 µM (inactive) in the assay on SNB-75; 80.5 µM (inactive) in the assay on SF-295. Also, the GI50 with K562 is 42.1 µM (inactive); with SF-268, > 100 µM (inactive); with CCRF-CEM, 40.7 µM (inactive); in the assay with LOX IMVI it was > 100 µM (inactive); in the assay with NCI-H23 it was > 100 µM (inactive); in the assay with SN12C, > 100 µM (inactive). For the same compound, the figures for the GI50 in the assay with A498 and in the assay on COLO 205 were > 100 µM (inactive) and 59.2 µM (inactive), respectively.
With `Nc1ncnn2c(C3OC(CO)C(O)C3O)ccc12` (stereo not given), the GI50 in the assay with OVCAR-3 is 0.169 µM (active); in the assay with EKVX, 0.366 µM (active); with ACHN, 0.17 µM (active); with KM12 it was 0.107 µM (active); in the assay on TK-10 it was 0.214 µM (active); in the assay with RXF 393 it was 0.226 µM (active). Besides, the GI50 was 0.137 µM (active) in the assay on MDA-MB-435; 0.136 µM (active) in the assay with UACC-62; 0.125 µM (active) with U-251; 0.164 µM (active) in the assay with MCF7; 0.329 µM (active) in the assay with SNB-75; 0.323 µM (active) with SF-295. The GI50 with K562 was 0.163 µM (active); in the assay on SF-268, 0.236 µM (active); with CCRF-CEM it was 0.144 µM (active); in the assay with LOX IMVI, 0.0201 µM (active); in the assay with NCI-H23, 0.137 µM (active); with SN12C, 0.195 µM (active). The GI50 in the assay with A498 is 0.155 µM (active); with COLO 205, 0.188 µM (active).
Turning to `COc1ccc(N2C(=O)C3c4[nH]c5c(C)cccc5c4C4CCC(C(C)(C)C)CC4C3C2=O)cc1` (stereo not given), the GI50 is > 10 µM (inactive) in the assay with OVCAR-3; 5.18 µM (inactive) in the assay with EKVX; 5.12 µM (inactive) with ACHN; 5.13 µM (inactive) in the assay with KM12; 9.14 µM (inactive) in the assay with TK-10; 3.36 µM (inactive) in the assay on RXF 393. Also, the GI50 with MDA-MB-435 was > 10 µM (inactive); with UACC-62, > 10 µM (inactive); in the assay on U-251, > 10 µM (inactive); in the assay on MCF7 it was 3.56 µM (inactive); in the assay with SNB-75, > 10 µM (inactive); in the assay with SF-295 it was > 10 µM (inactive). The GI50 was 4.51 µM (inactive) with K562; 5.61 µM (inactive) in the assay with SF-268; > 10 µM (inactive) in the assay with CCRF-CEM; 2.16 µM (inactive) in the assay on LOX IMVI; 4.19 µM (inactive) in the assay with NCI-H23; 8.79 µM (inactive) in the assay with SN12C. Moreover, the GI50 with A498 was > 10 µM (inactive); in the assay on COLO 205, 5.97 µM (inactive).
Turning to `Cc1cccc2c1NC(=S)[C@@H]1CCCN1C2=O`, the GI50 in the assay with OVCAR-3, with EKVX, in the assay with ACHN, in the assay with KM12, in the assay with TK-10 and in the assay on RXF 393 was > 100 µM (inactive) each time. For the same compound, the GI50 in the assay on MDA-MB-435 was > 100 µM (inactive); in the assay with UACC-62, > 100 µM (inactive); in the assay with U-251, > 100 µM (inactive); in the assay on MCF7 it was > 100 µM (inactive); in the assay on SNB-75 it was 54 µM (inactive); in the assay with SF-295 it was > 100 µM (inactive). In addition, the GI50 with K562, in the assay with SF-268, with CCRF-CEM, in the assay with LOX IMVI, with NCI-H23 and in the assay with SN12C was > 100 µM (inactive) throughout. For the same compound, the GI50 in the assay with A498 and in the assay with COLO 205 was > 100 µM (inactive) each time.
In the case of `CN(C)C(=S)/N=c1\ssc(=S)n1Cc1ccco1`, the GI50 in the assay with OVCAR-3 was 1.15 µM (inactive); with EKVX, 6.9 µM (inactive); in the assay with ACHN, 32.3 µM (inactive); with KM12 it was 2.06 µM (inactive); in the assay on TK-10, 20.6 µM (inactive); with RXF 393, 0.998 µM (active). For the same compound, the GI50 in the assay on MDA-MB-435 is 0.274 µM (active); with UACC-62, 0.879 µM (active); in the assay with U-251, 1.15 µM (inactive); in the assay with MCF7 it was 0.49 µM (active); with SNB-75 it was 0.771 µM (active); in the assay with SF-295 it was 2.1 µM (inactive). In addition, the GI50 was 0.348 µM (active) in the assay on K562; 7.46 µM (inactive) with SF-268; 0.975 µM (active) with CCRF-CEM; 2.4 µM (inactive) in the assay with LOX IMVI; 2.38 µM (inactive) in the assay with NCI-H23; 4.21 µM (inactive) in the assay on SN12C. For the same compound, the GI50 in the assay with A498 is 1.38 µM (inactive); with COLO 205, 2.21 µM (inactive).
As to `Cc1c(C)c(S(=O)(=O)N(CCCN)OCCCN)c(C)c2c1OC(C)(C)CC2`, the GI50 was 15 µM (inactive) in the assay with OVCAR-3; 16.7 µM (inactive) in the assay with EKVX; 16.1 µM (inactive) in the assay on ACHN; 12.4 µM (inactive) in the assay with KM12; 14.7 µM (inactive) in the assay with TK-10; 9.04 µM (inactive) in the assay on RXF 393. In addition, the GI50 in the assay with MDA-MB-435 is 15.8 µM (inactive); in the assay with UACC-62, 14.8 µM (inactive); in the assay on U-251, 11.9 µM (inactive); with MCF7, 15.4 µM (inactive); in the assay with SNB-75, 11.3 µM (inactive); with SF-295, 16.3 µM (inactive). Also, the GI50 in the assay on K562 is 15.2 µM (inactive); with SF-268 it was 13.3 µM (inactive); in the assay with CCRF-CEM, 10.2 µM (inactive); with LOX IMVI it was 13.3 µM (inactive); in the assay with NCI-H23, 14.5 µM (inactive); with SN12C it was 15.1 µM (inactive). Further, the GI50 is 12.9 µM (inactive) in the assay on A498 and 17.5 µM (inactive) in the assay on COLO 205.
As to `COc1cc(OC)c2c(=O)c(O)c(-c3ccc(OC)c(OC)c3)oc2c1`, the GI50 was 3.56 µM (inactive) in the assay with OVCAR-3; 7.14 µM (inactive) in the assay with EKVX; 4.36 µM (inactive) in the assay with ACHN; 7.29 µM (inactive) with KM12; 11.2 µM (inactive) in the assay with TK-10; 8.99 µM (inactive) in the assay with RXF 393. In addition, the GI50 in the assay on MDA-MB-435 was 22.6 µM (inactive); with UACC-62 it was 3.43 µM (inactive); with U-251, 4.94 µM (inactive); in the assay with MCF7, 4.02 µM (inactive); with SNB-75, 7.59 µM (inactive); in the assay on SF-295 it was 5.37 µM (inactive). Besides, the GI50 in the assay on K562 is 5.25 µM (inactive); in the assay on SF-268, 4.11 µM (inactive); in the assay with CCRF-CEM, 3.1 µM (inactive); with LOX IMVI it was 3.78 µM (inactive); in the assay on NCI-H23, 11.1 µM (inactive); in the assay on SN12C, 6.28 µM (inactive). Also, the figures for the GI50 with A498 and in the assay with COLO 205 were 10.3 µM (inactive) and 4.84 µM (inactive), respectively.
